Measured values published in ChEMBL document CHEMBL1914329, “2D MI-DRAGON: a new predictor for protein-ligands interactions and theoretic-experimental studies of US FDA drug-target network, oxoisoaporphine inhibitors for MAO-A and human parasite proteins” (Eur J Med Chem, 2011).

Experiments:
Homo sapiens = species on record: Homo sapiens; assay: Selectivity index, ratio of IC50 for human recombinant MAO-B to IC50 for human recombinant MAO-A
[1] = target: T1, Amine oxidase [flavin-containing] B (Homo sapiens, UniProt P27338); assay: biochemical; assay type: cell-based, BTI-TN-5B1-4
T1 sequence (P27338 whole entry): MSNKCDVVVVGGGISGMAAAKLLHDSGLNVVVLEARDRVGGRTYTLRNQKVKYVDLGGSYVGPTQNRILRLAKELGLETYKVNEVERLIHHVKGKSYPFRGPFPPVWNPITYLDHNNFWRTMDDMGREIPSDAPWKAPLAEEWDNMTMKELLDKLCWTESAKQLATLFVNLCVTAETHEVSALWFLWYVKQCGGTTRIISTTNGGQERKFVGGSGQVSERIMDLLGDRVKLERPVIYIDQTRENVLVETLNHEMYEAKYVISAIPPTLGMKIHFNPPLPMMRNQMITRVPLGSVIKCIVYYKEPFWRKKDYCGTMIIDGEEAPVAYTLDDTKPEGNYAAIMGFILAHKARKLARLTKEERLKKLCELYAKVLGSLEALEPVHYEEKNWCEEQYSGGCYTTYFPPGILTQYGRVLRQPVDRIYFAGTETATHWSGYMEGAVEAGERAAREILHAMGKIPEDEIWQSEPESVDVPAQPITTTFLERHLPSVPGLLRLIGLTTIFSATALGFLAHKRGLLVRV
Description: Inhibition of human recombinant MAOB expressed in baculovirus infected BTI-TN-5B1-4 insect cells assessed as hydrogen peroxide production from p-tyramine after 15 mins by amplex red assay

[2] = target: T2, Amine oxidase [flavin-containing] A (Homo sapiens, UniProt P21397); assay: Inhibition of human recombinant MAOA expressed in baculovirus infected BTI-TN-5B1-4 insect cells assessed as hydrogen peroxide production from p-tyramine after 15 mins by amplex red assay
T2 sequence (P21397 whole entry): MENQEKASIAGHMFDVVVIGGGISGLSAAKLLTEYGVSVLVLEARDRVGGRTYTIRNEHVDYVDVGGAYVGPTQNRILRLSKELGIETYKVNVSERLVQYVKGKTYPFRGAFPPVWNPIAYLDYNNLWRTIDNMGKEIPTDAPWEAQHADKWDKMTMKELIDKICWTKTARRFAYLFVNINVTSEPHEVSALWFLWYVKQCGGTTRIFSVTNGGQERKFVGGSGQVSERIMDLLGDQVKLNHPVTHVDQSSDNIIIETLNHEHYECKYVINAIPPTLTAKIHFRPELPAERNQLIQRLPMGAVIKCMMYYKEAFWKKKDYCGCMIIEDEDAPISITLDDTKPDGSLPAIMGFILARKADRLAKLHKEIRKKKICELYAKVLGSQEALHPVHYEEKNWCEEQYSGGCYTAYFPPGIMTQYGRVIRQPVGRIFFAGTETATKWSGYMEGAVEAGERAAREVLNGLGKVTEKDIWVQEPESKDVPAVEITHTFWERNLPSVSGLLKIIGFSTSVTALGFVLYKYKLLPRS

[3] = target: T1, Amine oxidase [flavin-containing] B; assay: Inhibition of human recombinant MAOB expressed in baculovirus infected BTI-TN-5B1-4 insect cells assessed as hydrogen peroxide production from p-tyramine at 1 mM after 15 mins by amplex red assay; settings: bti-tn-5b1-4, 0.25 h, 1000 µM

Structure (SMILES) | Ratio IC50 (Homo sapiens) | IC50 [1] | IC50 [2] | inhibition (INH) [3]
COc1cc2c3c(c1)C(O)c1ccccc1C3NCC2 (centres undefined) | > 5.1 | > 50 µM | 9.81 µM | –
COC1=Cc2ccnc3c2c(cc2ccccc23)C1=O | > 7690 | > 100 µM | 0.013 µM | –
O=C1c2ccccc2-c2nccc3cc(O)cc1c23 | > 2860 | > 100 µM | 0.035 µM | –
O=C1c2ccccc2-c2nccc3cccc1c23 | > 139 | > 100 µM | 0.72 µM | –
O=C(NCCN1CCOCC1)c1ccc(Cl)cc1 [MOCLOBEMIDE] | – | – | – | Not Active
COc1cc2ccnc3c2c(c1O)C(=O)c1ccccc1-3 | > 81 | > 100 µM | 1.23 µM | –

Results, then the molecule that gave them:

Ratio IC50 (Homo sapiens) | IC50 [1] | IC50 [2] | inhibition (INH) [3] | Structure (SMILES)
> 2270 | > 100 µM | 0.044 µM | – | COc1cc2c3c(c1O)C(=O)c1ccccc1C3=NCC2
> 24 | > 50 µM | 2.12 µM | – | COc1cc2c3c(c1)C(=O)C1=C(CCCC1)C3=NCC2
> 7140 | > 100 µM | 0.014 µM | – | COc1cc2c3c(c1)C(=O)c1ccccc1C3=NCC2
> 3.7 | > 100 µM | 27.3 µM | – | O=C1c2ccccc2C2=NCCc3cccc1c32
– | > 100 µM | – | – | COc1cc2c3c(nccc3c1)-c1ccccc1C2=O
